Measurements taken from US11591631B2, “Glucose monitoring method and glucose sensor” (TOYOBO CO., LTD., priority 2017, dated 2023).
Like-named read-outs stand apart in the source and are kept apart here.

Legend:
[1] = tested on: FADGDH GDH-2, SEQ ID No. 2 (SEQ ID No. 1 of JP2013-116102A); assay: Michaelis constant of GDH-2 in aqueous system (DCPIP/PMS, Lineweaver-Burk plot); format: biochemical; details: pH 6.5, 37° C., Lineweaver-Burk at 30, 50, 100, 200 mM, read-out: Michaelis constant (Km) for glucose
Description: (§1) In the present invention, the activity of glucose dehydrogenase is defined using, as 1 unit (U), the amount of enzyme that reduces 1 micromole of DCPIP per minute in the presence of a substrate according to a method using a reagent having the following formulation.
(§2) 50 mM PIPES buffer (pH: 6.5; containing 0.1% TritonX-100)
(§3) 2 mM 2,5-dichlorophenolindophenol (DCPIP) solution
(§4) First, 3 ml of reaction reagent is pre-warmed at 37° C. for 5 minutes. 0.1 ml of GDH solution is added thereto, and the resulting mixture is gently mixed. Then, the change in absorbance at 600 nm is record for 5 minutes by a spectrophotometer adjusted at 37° C. with water as a control, and the change in absorbance per minute (ΔODTEST) is measured from the straight line portion. In a blind test, a solvent that dissolves GDH is added to the reagent mixture, instead of the GDH solution, and the change in absorbance per minute (ΔODBLANK) is similarly measured. From these values, GDH activity is determined according to the following formula. […] Activity (U/ml)={−(ΔODTEST−ΔODBLANK)×3.0×dilution magnification}/{16.3×0.1×1.0} […]

[2] = tested on: FADGDH GDH-3, SEQ ID No. 3 (SEQ ID No. 1 of JP4649993B); assay: Michaelis constant of GDH-3 in aqueous system (DCPIP/PMS, Lineweaver-Burk plot); format: biochemical, Mucor prainii; details: pH 6.5, 37° C., Lineweaver-Burk at 30, 50, 100, 200 mM, read-out: Michaelis constant (Km) for glucose
Description: as §1, §2, §3, §4

[3] = tested on: FADGDH GDH-4, SEQ ID No. 4 (SEQ ID No. 1 of JP2015-146773A); assay: Michaelis constant of GDH-4 in aqueous system (DCPIP/PMS, Lineweaver-Burk plot); format: biochemical; details: pH 6.5, 37° C.
Description: as §1, §2, §3, §4

[4] = tested on: modified FADGDH GDH-5, random mutant of FADGDH of SEQ ID No. 5; assay: Michaelis constant of GDH-5 in aqueous system (DCPIP/PMS, Lineweaver-Burk plot); format: biochemical; details: pH 6.5, 37° C., Lineweaver-Burk at 30, 50, 100, 200 mM, read-out: Michaelis constant (Km) for glucose
Description: as §1, §2, §3, §4

[5] = tested on: modified FADGDH GDH-6, random mutant of FADGDH of SEQ ID No. 5; assay: Michaelis constant of GDH-6 in aqueous system (DCPIP/PMS, Lineweaver-Burk plot); format: biochemical; details: pH 6.5, 37° C., Lineweaver-Burk at 30, 50, 100, 200 mM, read-out: Michaelis constant (Km) for glucose
Description: as §1, §2, §3, §4

[6] = tested on: FADGDH enzymes of Table 1 (GDH-1 to GDH-4); assay: Km for D-glucose of the enzymes listed in Table 1; format: biochemical; details: read-out: Km for D-glucose; range over the enzymes listed in Table 1
Description: as §1
First, 3 ml of reaction reagent is pre-warmed at 37° C. for 5 minutes. 0.1 ml of GDH solution is added thereto, and the resulting mixture is gently mixed. Then, the change in absorbance at 600 nm is record for 5 minutes by a spectrophotometer adjusted at 37° C. with water as a control, and the change in absorbance per minute (ΔODTEST) is measured from the straight line portion. In a blind test, a solvent that dissolves GDH is added to the reagent mixture, instead of the GDH solution, and the change in absorbance per minute (ΔODBLANK) is similarly measured. From these values, GDH activity is determined according to the following formula. […] Activity (U/ml)={−(ΔODTEST−ΔODBLANK)×3.0×dilution magnification}/{16.3×0.1×1.0}
GDH-3 is obtained by genetically engineering and expressing GDH having an amino acid sequence of SEQ ID No. 3 (the amino acid sequence represented by SEQ ID No. 1 of JP4649993B) using the Cryptococcus sp. S-2 D11 strain (FERM BP-11482) described in JP5588578B. […]

[7] = substrate: OC1OC[C@@H](O)[C@H](O)[C@H]1O; assay: purified protein, by the assay type; details: other: pH 6.5, 37° C., aqueous system, Lineweaver-Burk
[8] = substrate: OC[C@H]1OC(O)[C@H](O)[C@@H](O)[C@@H]1O; assay: purified protein, by the assay type; details: other: pH 6.5, 37° C., aqueous system, Lineweaver-Burk at 30, 50, 100, 200 mM

Work on `OC[C@H]1OC(O)[C@H](O)[C@@H](O)[C@@H]1O` (stereo partly drawn) [D-glucose] yielded a Km [1] of 16 mM, a Km [2] of 31 mM and a Km ([3]; Lineweaver-Burk at 30, 50, 100, 200 mM, read-out: Michaelis constant (Km) for glucose) of 14 mM. It also gave a Km [4] of 80 mM, a Km [5] of 82 mM and a Km [6] of 14 to 82 mM.

`OC1OC[C@@H](O)[C@H](O)[C@H]1O` (stereo partly drawn) [D-xylose] gave a Km ([3]; Lineweaver-Burk, read-out: Michaelis constant (Km) for xylose) of 82 mM.

B1: FADGDH GDH-1, SEQ ID No. 1 (encoded by SEQ ID No. 8 of JP527482B) (Aspergillus oryzae) (protein)
chain: MKNTTTYDYIVVGGGTSGLVVANRLSENPDVSVLLLEAGASVFNNPDVTNANGYGLAFGSAIDWQYQSINQSYAGGKQQVLRAGKALGGTSTINGMAYTRAEDVQIDVWQKLGNEGWTWKDLLPYYLKSENLTAPTSSQVAAGAAYNPAVNGKEGPLKVGWSGSLASGNLSVALNRTFQAAGVPWVEDVNGGKMRGFNIYPSTLDVDLNVREDAARAYYFPYDDRKNLHLLENTTANRLFWKNGSAEEAIADGVEITSADGKVTRVHAKKEVIISAGALRSPLILELSGVGNPTILKKNNITPRVDLPTVGENLQDQFNNGMAGEGYGVLAGASTVTYPSISDVFGNETDSIVASLRSQLSDYAAATVKVSNGHMKQEDLERLYQLQFDLIVKDKVPIAEILFHPGGGNAVSSEFWGLLPFARGNIHISSNDPTAPAAINPNYFMFEWDGKSQAGIAKYIRKILRSAPLNKLIAKETKPGLSEIPATAADEKWVEWLKANYRSNFHPVGTAAMMPRSIGGVVDNRLRVYGTSNVRVVDASVLPFQVCGHLVSTLYAVAERASDLIKEDAKSA
B1 showed a Km [7] of 39 mM and a Km [8] of 68 mM.
